Assays:
[1] = target: RBD domain of S protein of SARS-CoV-2 (Severe acute respiratory syndrome coronavirus 2, UniProt P0DTC2); assay: biochemical; assay type: binding
[2] = target: binding interactions between RBD and ACE2 (Homo sapiens, UniProt Q9BYF1); design: species or system SARS-CoV-2
ACE2 = settings: read-out: IC50 (ACE2 inhibitor); cited from earlier work

Sequence of binding interactions between RBD and ACE2 (Q9BYF1 whole entry, looked up): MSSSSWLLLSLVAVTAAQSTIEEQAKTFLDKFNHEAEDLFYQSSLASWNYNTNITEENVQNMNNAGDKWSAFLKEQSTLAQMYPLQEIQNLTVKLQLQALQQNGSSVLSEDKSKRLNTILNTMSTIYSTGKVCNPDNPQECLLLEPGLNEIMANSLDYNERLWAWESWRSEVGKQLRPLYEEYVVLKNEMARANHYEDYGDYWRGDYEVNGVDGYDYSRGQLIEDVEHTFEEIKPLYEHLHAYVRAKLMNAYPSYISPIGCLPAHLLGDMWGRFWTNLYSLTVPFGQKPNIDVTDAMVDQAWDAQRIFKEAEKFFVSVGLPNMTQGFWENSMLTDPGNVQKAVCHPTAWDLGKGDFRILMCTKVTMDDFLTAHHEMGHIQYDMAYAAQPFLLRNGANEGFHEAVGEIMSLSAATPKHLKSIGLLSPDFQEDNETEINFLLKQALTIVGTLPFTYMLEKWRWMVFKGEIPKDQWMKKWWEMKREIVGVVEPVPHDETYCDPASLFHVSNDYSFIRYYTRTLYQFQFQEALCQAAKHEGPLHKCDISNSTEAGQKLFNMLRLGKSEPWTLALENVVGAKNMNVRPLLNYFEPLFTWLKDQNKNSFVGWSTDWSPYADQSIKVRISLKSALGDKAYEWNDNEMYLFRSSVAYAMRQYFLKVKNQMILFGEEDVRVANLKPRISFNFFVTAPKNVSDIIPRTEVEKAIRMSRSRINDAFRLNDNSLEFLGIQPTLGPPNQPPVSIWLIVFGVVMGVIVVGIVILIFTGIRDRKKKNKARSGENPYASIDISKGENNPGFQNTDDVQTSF

SMILES	Kd [1] [µM]	effect on the binding affinity between RBD and ACE2 [2]	IC50 (ACE2) [µM]
Nc1ncnc2c1ncn2[C@@H]1O[C@H](CO)C[C@H]1O [CDCP, Cordycepin]	20.5		
C=C[C@@H]1C2=CCOC(=O)C2=CO[C@H]1O[C@@H]1O[C@H](CO)[C@@H](O)[C@H](O)[C@H]1O [GTCP, Gentiopicrin]	29.6		
CC(C)C[C@H](N[C@@H](Cc1cncn1Cc1cc(Cl)cc(Cl)c1)C(=O)O)C(=O)O [MLN-4760]		negligible effect	0.00044
